Like-named read-outs stand apart in the source and are kept apart here.
How the values were obtained:
Assay in all cases: Anti-proliferative assay, cell-titre luminescent reagent, 72 h (GVK-BIO)
Type in all cases: cell-based
[1] = tested on: MDA-MB-231 triple negative breast cancer cells
How it was run: (§1)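 Cells were seeded, attached over 24 h at 37 °C/5% CO2, then exposed 72 h to 30, 3, 0.3, 0.03 μM or 30, 10, 3, 1, 0.3, 0.1 μM compound, with luminescent viability reagent read after 30 min. IC50 came from linear regression of percent-of-control, or EC50 from sigmoidal variable-slope fit against vehicle.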

[2] = tested on: SK-Mel-28 melanoma cells
How it was run: as §1

[3] = tested on: DU145 prostate cancer cells
How it was run: as §1

[4] = tested on: SK-N-SH neuroblastoma cells
How it was run: as §1

[5] = tested on: A549 non-small cell lung carcinoma cells; conditions: read-out: IC50/μM Lung (NSLC) A549
How it was run: as §1

[6] = tested on: CaCo2 colorectal cancer cells
How it was run: as §1

[7] = tested on: PC3 prostate cancer cells
How it was run: as §1

[8] = Homo sapiens, MDA-MB-231, 72 h, 30, 10, 3, 1, 0.3 and 0.1 μM, nonlinear regression (Table 5)
[9] = Homo sapiens, SK-MEL-28, 72 h, 30, 10, 3, 1, 0.3 and 0.1 μM, nonlinear regression (Table 5)
[10] = Homo sapiens, DU-145, 72 h, 30, 10, 3, 1, 0.3 and 0.1 μM, nonlinear regression (Table 5)
[11] = Homo sapiens, SK-N-SH, 30, 10, 3, 1, 0.3 and 0.1 μM, nonlinear regression (Table 5)
[12] = Homo sapiens, A549, 72 h, 30, 10, 3, 1, 0.3 and 0.1 μM, nonlinear regression (Table 5)
[13] = Homo sapiens, Caco-2, 72 h, 30, 10, 3, 1, 0.3 and 0.1 μM, nonlinear regression (Table 5)
[14] = 30, 10, 3, 1, 0.3 and 0.1 μM, nonlinear regression (Table 5)
[15] = Homo sapiens, MDA-MB-231, 72 h, 30, 3, 0.3 and 0.03 μM, linear regression (Tables 2-4)
[16] = Homo sapiens, SK-MEL-28, 72 h, 30, 3, 0.3 and 0.03 μM, linear regression (Tables 2-4)
[17] = Homo sapiens, DU-145, 72 h, 30, 3, 0.3 and 0.03 μM, linear regression (Tables 2-4)
[18] = Homo sapiens, SK-N-SH, 30, 3, 0.3 and 0.03 μM, linear regression (Tables 2-4)
[19] = Homo sapiens, A549, 72 h, 30, 3, 0.3 and 0.03 μM, linear regression (Tables 2-4)
[20] = Homo sapiens, Caco-2, 72 h, 30, 3, 0.3 and 0.03 μM, linear regression (Tables 2-4)
[21] = 30, 3, 0.3 and 0.03 μM, linear regression (Tables 2-4)

Structure (SMILES) | IC50 [1, 8] | IC50 [2, 9] | IC50 [3, 10] | IC50 [4, 11] | IC50 [5, 12] | IC50 [6, 13] | IC50 [7, 14] | IC50 [1, 15] | IC50 [2, 16] | IC50 [3, 17] | IC50 [4, 18] | IC50 [5, 19] | IC50 [6, 20] | IC50 [7, 21] | IC50 [1, 21] | IC50 [2, 21] | IC50 [3, 21] | IC50 [4, 21] | IC50 [5, 21] | IC50 [6, 21]
COc1ccc(NC(=O)c2ccc(Cc3ccc4c(c3)c(C)c(C)n4CCCN(C)C)cc2)cc1 [Compound 4083, 4-((1-(3-(dimethylamino)propyl)-2,3-dimethyl-1H-indol-5-yl)methyl)-N-(4-methoxyphenyl)benzamide] | 13.1 µM | 4.7 µM | 5.1 µM | 3.3 µM | 11.2 µM | 11.9 µM | 13.2 µM | – | – | – | – | – | – | – | – | – | – | – | – | –
CN(C)CCCn1ccc2cc(Cc3cccc(C(=O)Nc4cccc(F)c4)c3)ccc21 [Compound 4048, 3-((1-(3-(dimethylamino)propyl)-1H-indol-5-yl)methyl)-N-(3-fluorophenyl)benzamide] | – | – | – | – | – | – | – | 3.2 µM | 3.1 µM | 3.3 µM | 3.9 µM | 3 µM | 6.9 µM | 3.8 µM | – | – | – | – | – | –
CN(C)CCCn1ccc2cc(Oc3cccc(C(=O)Nc4ccc5c(c4)OCO5)c3)ccc21 [Compound 4058, N-(benzo[d][1,3]dioxol-5-yl)-3-((1-(3-(dimethylamino)propyl)-1H-indol-5-yl)oxy)benzamide] | – | – | – | – | – | – | – | 3.8 µM | 2.7 µM | 4.7 µM | 3.4 µM | 4.7 µM | 9.7 µM | 7.2 µM | – | – | – | – | – | –
Cc1c(C)n(CCCN(C)C)c2ccc(Cc3cccc(C(=O)Nc4cccc(F)c4)c3)cc12 [Compound 4053] | – | – | – | – | – | – | – | 2.5 µM | 2.5 µM | 4.3 µM | 3.8 µM | 2 µM | 4.6 µM | 3.7 µM | – | – | – | – | – | –
CN(C)CCCn1ccc2cc(Nc3cccc(C(=O)Nc4ccc(F)cc4)c3)ccc21 [Compound 4099, 3-((1-(3-(dimethylamino)propyl)-1H-indol-5-yl)amino)-N-(4-fluorophenyl)benzamide] | – | – | – | – | – | – | – | – | – | – | – | – | – | 4.9 µM | 3.4 µM | 3.7 µM | 5.5 µM | 3.9 µM | 4.1 µM | > 30 µM
CN(C)CCCn1ccc2cc(Oc3cccc(C(=O)Nc4ccc(F)cc4)c3)ccc21 [Compound 4056, 3-((1-(3-(dimethylamino)propyl)-1H-indol-5-yl)oxy)-N-(4-fluorophenyl)benzamide] | – | – | – | – | – | – | – | 3 µM | 3.4 µM | 4.3 µM | 3.4 µM | 4 µM | 4.7 µM | 7 µM | – | – | – | – | – | –
COc1ccc(NC(=O)c2cccc(Nc3ccc4c(ccn4CCCN(C)C)c3)c2)cc1 [Compound 4068, 3-((1-(3-(dimethylamino)propyl)-1H-indol-5-yl)amino)-N-(4-methoxyphenyl)benzamide] | – | – | – | – | – | – | – | 2.8 µM | 2.7 µM | 5.4 µM | 3.5 µM | 2.9 µM | > 30 µM | 14.6 µM | – | – | – | – | – | –
Cc1c(C)n(CCCN(C)C)c2ccc(C(=O)N3CCN(CCc4ccccc4)CC3)cc12 [Compound 4018, (1-(3-(dimethylamino)propyl)-2,3-dimethyl-1H-indol-5-yl)(4-phenethylpiperazin-1-yl)methanone] | – | – | – | – | – | – | – | > 30 µM | 67.3 µM | > 30 µM | > 30 µM | > 30 µM | > 30 µM | > 30 µM | – | – | – | – | – | –
CN(C)CCCn1ccc2cc(Nc3ccc(C(=O)Nc4cccc(F)c4)cc3)ccc21 [Compound 4102, 4-((1-(3-(dimethylamino)propyl)-1H-indol-5-yl)amino)-N-(3-fluorophenyl)benzamide] | – | – | – | – | – | – | – | 3.6 µM | 3.5 µM | 6 µM | 3.5 µM | 4 µM | > 30 µM | 5.5 µM | – | – | – | – | – | –
Cc1c(C)n(CCCN(C)C)c2ccc(Oc3cccc(C(=O)Nc4ccc(F)cc4)c3)cc12 [Compound 4061] | – | – | – | – | – | – | – | 3.2 µM | 2.5 µM | 3 µM | 2.3 µM | 3 µM | 3.7 µM | 2.2 µM | – | – | – | – | – | –
Cc1c(C)n(CCCN(C)C)c2ccc(Nc3cccc(C(=O)Nc4cccc(F)c4)c3)cc12 [Compound 4075, 3-((1-(3-(dimethylamino)propyl)-2,3-dimethyl-1H-indol-5-yl)amino)-N-(3-fluorophenyl)benzamide] | – | – | – | – | – | – | – | 2.6 µM | 2.7 µM | 3 µM | 2.6 µM | 2.9 µM | 3.3 µM | 4.5 µM | – | – | – | – | – | –
COc1ccc(NC(=O)c2cccc(Nc3ccc4c(c3)c(C)c(C)n4CCCN(C)C)c2)cc1 [Compound 4073, 3-((1-(3-(dimethylamino)propyl)-2,3-dimethyl-1H-indol-5-yl)amino)-N-(4-methoxyphenyl)benzamide] | – | – | – | – | – | – | – | 3.4 µM | 3.1 µM | 4 µM | 2.6 µM | 3.9 µM | 2.8 µM | 4.2 µM | – | – | – | – | – | –
COc1cccc(CCN2CCN(C(=O)c3ccc4c(c3)c(C)c(C)n4CCCN3CCN(C)CC3)CC2)c1 [Compound 4125, (2,3-dimethyl-1-(3-(4-methylpiperazin-1-yl)propyl)-1H-indol-5-yl)(4-(3-methoxyphenethyl)piperazin-1-yl)methanone] | – | – | – | – | – | – | – | 33.2 µM | 25 µM | > 30 µM | 14.9 µM | 19.4 µM | > 30 µM | > 30 µM | – | – | – | – | – | –

Results, then the molecule that gave them:

IC50 [1, 8] | IC50 [2, 9] | IC50 [3, 10] | IC50 [4, 11] | IC50 [5, 12] | IC50 [6, 13] | IC50 [7, 14] | IC50 [1, 15] | IC50 [2, 16] | IC50 [3, 17] | IC50 [4, 18] | IC50 [5, 19] | IC50 [6, 20] | IC50 [7, 21] | IC50 [1, 21] | IC50 [2, 21] | IC50 [3, 21] | IC50 [4, 21] | IC50 [5, 21] | IC50 [6, 21] | Structure (SMILES)
– | – | – | – | – | – | – | 2.5 µM | 3.6 µM | 3.5 µM | 2.9 µM | 3 µM | 3.5 µM | 4.9 µM | – | – | – | – | – | – | COc1cccc(NC(=O)c2ccc(Oc3ccc4c(c3)c(C)c(C)n4CCCN(C)C)cc2)c1 [Compound 4097, 4-((1-(3-(dimethylamino)propyl)-2,3-dimethyl-1H-indol-5-yl)oxy)-N-(3-methoxyphenyl)benzamide]
– | – | – | – | – | – | – | 1.5 µM | 2.7 µM | 2.8 µM | 1.3 µM | 2.5 µM | 2.4 µM | 22.7 µM | – | – | – | – | – | – | Cc1c(C)n(CCCN(C)C)c2ccc(Nc3cccc(C(=O)Nc4ccc5c(c4)OCO5)c3)cc12 [Compound 4074, N-(benzo[d][1,3]dioxol-5-yl)-3-((1-(3-(dimethylamino)propyl)-2,3-dimethyl-1H-indol-5-yl)amino)benzamide]
– | – | – | – | – | – | – | 2.6 µM | 3.7 µM | 5.5 µM | 3.8 µM | 3.7 µM | 5.2 µM | 5.7 µM | – | – | – | – | – | – | CN(C)CCCn1ccc2cc(Cc3cccc(C(=O)Nc4ccc(F)cc4)c3)ccc21 [Compound 4045, 3-((1-(3-(dimethylamino)propyl)-1H-indol-5-yl)methyl)-N-(4-fluorophenyl)benzamide]
> 30 µM | > 30 µM | > 30 µM | > 30 µM | > 30 µM | > 30 µM | > 30 µM | – | – | – | – | – | – | – | – | – | – | – | – | – | Cc1c(C)n(CCCN2CCN(C)CC2)c2ccc(C(=O)N3CCN(CCc4cccc(O)c4)CC3)cc12 [Compound 4126, (2,3-dimethyl-1-(3-(4-methylpiperazin-1-yl)propyl)-1H-indol-5-yl)(4-(3-hydroxyphenethyl)piperazin-1-yl)methanone]
– | – | – | – | – | – | – | 1.9 µM | 2.6 µM | 3.1 µM | 1.8 µM | 2.4 µM | 2.8 µM | 3.6 µM | – | – | – | – | – | – | Cc1c(C)n(CCCN(C)C)c2ccc(Nc3ccc(C(=O)Nc4ccc5c(c4)OCO5)cc3)cc12 [Compound 4106, N-(benzo[d][1,3]dioxol-5-yl)-4-((1-(3-(dimethylamino)propyl)-2,3-dimethyl-1H-indol-5-yl)amino)benzamide]
– | – | – | – | – | – | – | 13.2 µM | 14.7 µM | > 30 µM | 13.6 µM | 15.7 µM | > 30 µM | > 30 µM | – | – | – | – | – | – | COc1ccc(CCN2CCN(C(=O)c3ccc4c(c3)c(C)c(C)n4CCCN3CCN(C)CC3)CC2)cc1 [Compound 4121, (2,3-dimethyl-1-(3-(4-methylpiperazin-1-yl)propyl)-1H-indol-5-yl)(4-(4-methoxyphenethyl)piperazin-1-yl)methanone]
– | – | – | – | – | – | – | 3.7 µM | 3.8 µM | 3.6 µM | 4.2 µM | 3 µM | 9.6 µM | 4.9 µM | – | – | – | – | – | – | Cc1c(C)n(CCCN(C)C)c2ccc(Oc3cccc(C(=O)Nc4ccc5c(c4)OCO5)c3)cc12 [Compound 4063, N-(benzo[d][1,3]dioxol-5-yl)-3-((1-(37(dimethylamino)propyl)-2,3-dimethyl-1H-indol-5-yl)oxy)benzamide]

— patent US20170166555A1, “FUNCTIONALISED AND SUBSTITUTED INDOLES AS ANTI-CANCER AGENTS” (Novogen Limited, priority 2013, published 2017)
